In publication PMC2824700, “Genetic analysis of the Staphylococcus epidermidis Macromolecular Synthesis Operon: Serp1129 is an ATP binding protein and sigA transcription is regulated by both σ^A- and σ^B-dependent promoters” (BMC Microbiology, 2010):

Biological target: T1, Serp1129 (Staphylococcus epidermidis, UniProt Q5HNY5)
T1 construct: full ORF in pET30a+ (NcoI/BamHI), His-tagged, E. coli BL21(DE3), HisTrap purified
T1 sequence (Q5HNY5 1-272): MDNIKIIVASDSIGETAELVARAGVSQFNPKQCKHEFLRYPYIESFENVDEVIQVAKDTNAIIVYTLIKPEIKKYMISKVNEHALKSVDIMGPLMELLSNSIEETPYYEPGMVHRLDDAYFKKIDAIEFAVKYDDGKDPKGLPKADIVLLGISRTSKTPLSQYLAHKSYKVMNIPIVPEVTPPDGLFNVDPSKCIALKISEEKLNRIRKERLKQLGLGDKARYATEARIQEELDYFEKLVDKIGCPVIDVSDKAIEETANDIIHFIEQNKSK
Assay: competition against biotinylated azidoanilide GTP photoaffinity label, streptavidin blot
Type: binding
Settings: 5-30 uM unlabeled GTP versus 1 uM labelled analogue; 25 °C, 30 s, then UV 254 nm

SMILES: Nc1nc2c(ncn2[C@@H]2O[C@H](COP(=O)(O)OP(=O)(O)OP(=O)(O)O)[C@@H](O)[C@H]2O)c(=O)[nH]1 [GTP]
- competition against biotinylated azidoanilide GTP photoaffinity label, streptavi: A similar pattern was observed when GTP binding reactions were performed
